Test results: US20100003217A1, “Compounds and Pharmaceutical Compositions for the Treatment of Viral Infections” (priority 2008, published 2010)

Tests used:
[1] = system: S282T HCV replicon (184R-D2 cells); test: microbe, parasite or virus in culture
Description: (§1) 1. […] Huh-7 cells were seeded into column 1 of each plate at a similar density.
(§2) 2. […] Eight additional 3-fold serial dilutions of each compound were prepared from the 2× stock in assay medium. Final drug concentrations ranged from 100 to 0.015 μM.
(§3) 3. […] This setup was run in duplicate in each 96-well plate.
(§4) 4. Cells were incubated with inhibitors for three days at 37° C./5% CO2.
(§5) 1. After three days of drug treatment, media was removed from the plates via gentle tapping and the cells were fixed to the plates with 100 μL/well of 1:1 acetone:methanol.
(§6) 2. After one minute of incubation at room temperature, plates were washed three times with 100 μL/well of ELISA wash solution and then blocked with 150 μL/well of 10% FBS-TNE.
(§7) 3. After a one hour incubation at room temperature, plates were washed three times with 100 μL/well of ELISA wash solution, and then 100 μL/well of mouse anti-hepatitis C […] mAb (1 mg/mL stock diluted 1:1,500 in 10% FBS-TNE) was added.
(§8) 4. Following 2 hours of incubation at 37° C., plates were washed three times with 100 μL/well of ELISA wash solution, and then 100 μL/well of HRP-goat anti-mouse antibody (diluted 1:4,000 in 10% FBS-TNE) was added.
(§9) 4. After a one hour incubation period at 37° C., each plate was washed three times with 100 μL/well of ELISA wash solution. Color development was then initiated with 100 μL/well of OPD solution.
(§10) 5. After a 30 minute incubation period in the dark at room temperature, reactions were stopped by adding 100 μL of 2NH2SO4 to each well.
(§11) 6. The absorbance was measured at 490 nm on a Victor^3 V 1420 multilabel counter (Perkin Elmer). The percent inhibition of HCV replicon replication was calculated for each drug using an average of the duplicate wells.

[2] = system: wild-type HCV replicon (GS4.1 cells); test: microbe, parasite or virus in culture
Description: as §1, §2, §3, §4, §5, §6, §7, §8, §9, §10, §11

[3] = system: S282T HCV replicon (184R-A cells); test: microbe, parasite or virus in culture
Description: 3. The 184R-A cell line was derived by culturing wild-type replicon cells in the presence of 1 to 5 μM of Compound 1 for >100 days.
as §1, §2, §3, §4, §5, §6, §7, §8, §9, §10, §11

[4] = Rat plasma pharmacokinetics of total radioactivity after [^14C]-Compound 1; type: in vivo, male Sprague-Dawley rats
Description: A preliminary rat metabolism study was conducted with radiolabeled Compound 1. The compound was labeled with [^14C] in the C-8 position of the guanine moiety. The objectives of the study were to determine, 1) the plasma pharmacokinetics of total radioactivity, 2) the time-course of total radioactivity and the amount of 2′-C-methyl guanosine-5′-TP in liver, 3) the major route of excretion, and 4) the metabolic profile in excreta, liver, and plasma.
Isotopically diluted [^14C]-Compound 1 was administered intravenously to male Sprague-Dawley rats at 50 mg/kg or by oral gavage at 100 mg/kg.
The plasma concentration-time data for total radioactivity was analyzed using Microsoft® Office Excel 2003 to obtain the area under the concentration-time curve (AUC). AUC0-24 (area under the concentration-time curve from 0 to 24 h after dosing) was calculated using the linear trapezoidal rule and nominal sampling times. For the IV dose group, concentration at time zero was extrapolated from the concentration data for the first two time points. The maximum (peak) plasma concentrations (Cmax) and the time to peak concentrations (tmax) were the observed values. Descriptive statistics were prepared in Excel.
Radioanalyses of plasma samples were conducted. The plasma concentration data for total radioactivity expressed as μg equivalents/mL are summarized below: […]

[5] = biological target: CYP2D6 (Homo sapiens, UniProt P10635); test: Incubation with human recombinant CYP450 supersomes, 2D6; type: in vitro ADME; conditions: CYP450 2D6 supersomes, 60 min, 10 μM, average of two experiments
Description: Supersomes—Incubations were conducted in a final volume of 0.1 mL reaction buffer (50-100 mM potassium phosphate, pH 7.4 or 100 mM Tris-HCL, pH 7.4) according to protocol provided with each CYP450 supersome. Each reaction contained […] of CYP450 supersome, 1.3 mM NADP^+, 3.3 mM glucose-6-phosphate, 0.4 U/mL glucose-6-phosphate dehydrogenase, 3.3 mM MgCl2 and 10 μM Compound 1. Following incubation for 60 min at 37° C., 100 μL of stop solution (acetonitrile:methanol; 1:1) was added and samples centrifuged for 10 min at 10,000×g. The supernatant was then dried and reconstituted in 10 mM potassium phosphate, pH 5, further transferred to an HPLC glass vial and analyzed by HPLC-UV (described above).

[6] = system: CYP3A4; test: Effect of CYP3A4 inhibitors (ketoconazole, ritonavir) on metabolic stability in monkey liver microsomes; type: in vitro ADME; conditions: monkey microsomes 0.5 mg/mL, 30 min, 10 μM, NADPH
Description: Incubations were conducted in a final volume of 0.1 mL per incubation time point. […] Final solvent (DMSO or methanol) concentration was maintained at 0.2%. Reactions were initiated by the addition of an NADPH regenerating system (1.3 mM NADP^+, 3.3 mM glucose-6-phosphate, 0.4 U/ml glucose-6-phosphate dehydrogenase, and 3.3 mM MgCl2, final concentrations). Incubations with no inhibitor served as control. Reactions were terminated at 30 min (monkey) or 60 min (rat and human) by the addition of 0.2 mL of stop solution (acetonitrile). The samples were vortex-mixed for 30 sec and then centrifuged at 10,000×g for 10 min. The supernatant was dried using a Labconco CentriVap concentrator and the dry residue reconstituted in water, transferred to an HPLC glass vial and analyzed by HPLC-UV method 1 (described above).
Because Compound 1 is rapidly metabolized in monkey liver microsomes, incubation conditions were adjusted by reducing protein content to 0.5 mg/mL and incubation time to 30 min. Incubation conditions for rat and human were unchanged; protein was 1 mg/mL and incubation time was 60 min.

Sequence of CYP2D6 (P10635 whole entry): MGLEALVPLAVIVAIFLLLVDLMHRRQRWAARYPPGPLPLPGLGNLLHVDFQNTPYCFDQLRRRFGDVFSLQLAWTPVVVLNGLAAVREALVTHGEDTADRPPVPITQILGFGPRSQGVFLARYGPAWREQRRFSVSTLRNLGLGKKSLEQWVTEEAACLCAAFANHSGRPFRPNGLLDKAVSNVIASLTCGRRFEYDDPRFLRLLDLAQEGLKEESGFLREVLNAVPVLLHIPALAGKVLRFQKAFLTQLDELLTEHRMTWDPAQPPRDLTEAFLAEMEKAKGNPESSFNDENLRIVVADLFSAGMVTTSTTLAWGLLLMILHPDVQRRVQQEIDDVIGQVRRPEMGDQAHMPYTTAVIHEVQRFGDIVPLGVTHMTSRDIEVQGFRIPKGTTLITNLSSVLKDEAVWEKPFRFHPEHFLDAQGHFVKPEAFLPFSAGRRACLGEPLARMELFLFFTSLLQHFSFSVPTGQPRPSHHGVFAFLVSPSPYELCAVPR

CC(C)(CO)C(=O)SCCOP(=O)(NCc1ccccc1)OC[C@H]1O[C@@H](n2cnc3c(=O)[nH]c(N)nc32)[C@](C)(O)[C@@H]1O (mixture of isomers) [Compound 1, 3-hydroxy-2,2-dimethyl-thiopropionic acid S-(2-{[(2R,3R,4R,5R)-5-(2-amino-6-oxo-1,6-dihydro-purin-9-yl)-3,4-dihydroxy-4-methyl-tetrahydro-furan-2-ylmethoxy]-benzylamino-phosphoryloxy}-ethyl) ester]
Fold shift from wild-type ([1]; 184R-D2 (S282T), EC50 in resistant line divided by EC50 in wild-type cells): 130 fold
EC50 ([1]; Hepatitis C virus): 39 ± 10 µM
Fold shift from wild-type ([2]; GS4.1 (wild-type), EC50 reference): 1 fold
EC50 ([2]; Hepatitis C virus): 0.3 µM
Fold shift from wild-type ([3]; 184R-A (S282T), EC50 in resistant line divided by EC50 in wild-type cells): 30 fold
EC50 ([3]; Hepatitis C virus): 9 µM
AUC0-24 of plasma total radioactivity ([4]; IV 50 mg/kg [^14C]-Compound 1): 36.0 hr.μg equivalent/mL
AUC0-24 of plasma total radioactivity ([4]; PO 100 mg/kg [^14C]-Compound 1): 15.4 hr.μg equivalent/mL
% Residual Compound 1 [5]: 102%
% Residual Compound 1 ([6]; Ketoconazole 0.1 μM): 68%
% Residual Compound 1 ([6]; Ketoconazole 1 μM): 125%
% Residual Compound 1 ([6]; Ritonavir 0.1 μM): 41%
% Residual Compound 1 ([6]; Ritonavir 1 μM): 122%
% Residual Compound 1 ([6]; inhibitor 0 μM): 25%
